Patent publication US8211646B1, “Methods of treating ovarian cancer by modulating SnoN” (University of South Florida, priority 2008, dated 2012)

Columns and labels:
Type in all cases: cell-based
[1] = system: immortalized and cancer ovarian cell lines; assay: Boyden chamber migration assay; conditions: 5 μM As2O3 6 hours, then 18 hours in Boyden chamber
Procedure: FIGS. 25(A) through (C) are graphs showing arsenic trioxide induces cell death and inhibits migratory potential. HEY cells were treated for 6 hours with 5 μM As2O3 and seeded at 25,000 cells into Boyden chamber inserts for 18 hours. Cells were stained with crystal violet and counted.
TAg/hTert immortalized normal ovarian epithelial cells (TIOSE: T29 and T80) and ovarian cancer cells (OVCAR8, OVCA429, SKOV3, and HEY) were transfected with siRNA were counted 24 h post-transfection and 5000 cells were plated in each well of a 96-well plate maintained in 10% FBS. At various days, cells were fixed and stained with crystal violet solution, dissolved in Sorenson's buffer, and absorbance measured at 570 nm. To assess migration, cells transfected with siRNA were counted 24 h post-transfection and seeded into Boyden chamber inserts in serum-free media. FBS in the lower chamber media (RPMI 1640) was used as a chemoattractant for 24 h. The cells that migrated onto the lower membrane were stained with crystal violet, photographed, and counted.

SnoN = assay: Western analysis of SnoN protein levels; conditions: for concentration at which induction of SnoN occurred: 18 hours
Procedure: Proteins were resolved on an 8%, 12%, or 15% SDS-PAGE gel (as appropriate) and electrophoretically transferred to polyvinyldifluoride (PVDF) membranes. After blocking with 5% (w/v) milk in TBST (Tris-Buffered Saline containing 0.1% Tween-20) for one hour at room temperature, membranes were incubated with primary antibodies (at appropriate dilution) overnight at 4° C., followed by extensive washing and incubation for 1 hour with the appropriate horseradish peroxidase-conjugated secondary antibodies (BioRad, Hercules, Calif.). Blots were washed extensively. A rabbit polyclonal EVI1 antibody was obtained (1:3000 dilution, St. Jude's Children's Hospital, Memphis, Tenn.). SnoN rabbit polyclonal (1:1000 dilution), PML, and p21 SMURF2 rabbit polyclonal (1:500 dilution), MRP1 mouse monoclonal (1:500 dilution) and GAPDH mouse monoclonal (1:250 dilution) antibodies were obtained from Santa Cruz Biotechnology (Santa Cruz, Calif.). TGFβRII rabbit polyclonal (1:1000 dilution) antibody was obtained from Strategic Diagnostics (Newark, Del.). Smad2/3 rabbit polyclonal (1:1000 dilution), Beclin-1 rabbit polyclonal (1:1000 dilution), AKT rabbit polyclonal (1:1000 dilution), TAK1 rabbit polyclonal (1:1000 dilution), PARP rabbit polyclonal (1:1000 dilution), Beclin-1 rabbit polyclonal (1:1000 dilution), caspase-3 rabbit polyclonal (1:1000) which detects the pro-caspase form, and ATG5 rabbit polyclonal (1:1000 dilution), LC3-II rabbit polyclonal (1:1000 dilution) antibodies were obtained from Cell Signaling Technology (Danvers, Mass.). The HSP27 mouse monoclonal (1:1000 dilution) antibody was obtained from Stressgen (Ann Arbor, Mich.). Blots were developed using chemiluminescence substrates (Amersham Piscataway, N.J. or BioRad, Hercules, Calif.). Monoclonal PAI-1 antibody was obtained from BD Pharmingen. PSMAD2, total SMAD2/3, p-ERK, p-AKT, and total AKT antibodies were obtained from Cell Signaling Technology. A monoclonal antibody against Arkadia was obtained from Abnova (Taiwan).
Densitometric analysis was performed using the HP Scanjet 5590 and the Image J program (Image Processing and Analysis in Java, NIH Image Software). Bands were selected and the intensity values were normalized to those for GAPDH. The values are presented as fold-changes relative to control siRNA treated cells.
The clinical inhibitors As2O3, geldanamycin (17-AAG) (dissolved in dimethylsulfoxide [DMSO]), and MG132 (dissolved in DMSO) were obtained from Sigma-Aldrich (St. Louis, Mo.), Fisher Scientific (Pittsburgh, Pa.), and Alexis Biochemicals (Farmingdale, N.Y.), respectively. N-acetyl-L-cysteine (NAC; dissolved in media) and Bortezomib (PS-341; dissolved in DMSO) were obtained from Fisher Scientific. 3-Methyladenine (3-MA; dissolved in media) was obtained from MP Biomedicals (Solon, Ohio). Tiron (4,5-Dihydroxy-1,3-benzenedisulfonic acid, dissolved in media) was obtained from Fisher Scientific. zVAD-fmk (dissolved in DMSO) and bafilomycin A (dissolved in DMSO) was obtained from Axxora LLC (San Diego, Calif.). Bovine catalase was obtained from Sigma-Aldrich. HBED and Mn TBAP was obtained from ENZO Life Sciences (Farmingdale, N.Y.). Ovarian cells were plated in 6-well plates at 250,000 cells per well and grown in complete medium. […] For control cells, DMSO (a final concentration of <0.5%) was added to compare appropriately to drugs dissolved in DMSO. After the appropriate incubation time (6 or 18 hours), cell lysates were collected, protein quantified, and SDS-PAGE/western analysis was performed. In addition, for selected studies, RNA was isolated, quantified, and used for qPCR analysis.

glutathione (GSH) = assay: GSH-Glo glutathione assay; conditions: T80, HEY, SKOV3; 18 hours
Procedure: Glutathione (GSH) was measured using the GSH Glo kit (Promega). Briefly, T80, HEY, and SKOV3 ovarian cells were plated at 5000 cells/well in opaque white 96 well plates. Following overnight attachment, cells were treated with As2O3 for 18 hours. Following cell treatments, the media was discarded and fresh PBS was added for washout followed by the addition of 100 μl of GSH-Glo reagent. Following a 2 minute shake, the cells were incubated at room temperature for 30 minutes followed by the addition of reconstituted luciferase detection reagent. The cells were incubated for a further 15 minutes at room temperature and the plate was read on a Biotek luminescence plate reader. All measurements were performed in triplicate.

What does the source list for Arsenic trioxide [As2O3]?
reduction of migratory potential [1]: more than fifty percent; SnoN/SkiL protein levels (SnoN; HEY and OVCA429, 18 hours, increasing doses): significantly increased; concentration at which induction of SnoN occurred (SnoN; HEY and SKOV3 cells): > 25 µM; time of As2O3 treatment at which induction of SnoN was seen (SnoN; HEY, time course): 9 h; concentration at which induction of SnoN occurred (SnoN; T80 cells): 10 µM; GSH levels (glutathione (GSH)): markedly reduced
